Measured values as given in US7179842B2, “Method of treating non-insulin dependent diabetes mellitus with phytanic acid derivatives” (priority 2000, dated 2007).
Read-outs that look alike come from different tables or passages of the source.

Legend:
RXR [1] = settings: cited from earlier work
[2] = molecular target: all-trans-retinoic acid receptor (RAR); settings: cited from earlier work
PEPCK mRNA = test: Quantitative RT-PCR (TaqMan) mRNA level, PEPCK; format: cell-based, rat
Procedure: (§1) The data is presented as means of 3 independent experiments.
(§2) For the quantification of the expression levels the novel Real Time Quantitative TaqMan™ PCR using the multiplex method was employed. Total RNA was isolated using the RNeasy kit from QIAGEN (Valencia, Calif.). The first strand cDNA was synthesized in a 20 μl reaction from 5 μg total RNA by reverse transcription with the. […] Subsequently the cDNA was diluted to 500 μl. In a 50 μl reaction, 10 μl cDNA was amplified in the 7700 Sequence Detector (PE Biosystems, Foster City, Calif.), using the Universal Master Mix (PE Biosystems, Foster City, Calif.) and the following PCR-primers and TaqMan™-probes at the concentrations of 300 nM and 100 nM, respectively, and PCR-primers and TaqMan™-probes for the reference gene β-actin at concentration of 50 nM.
(§3) The induction of gene expression, and corresponding error bars were calculated from 3 independent experiments using the ΔCT method according to the manufacturer's protocol.

GLUT-2 mRNA = test: Quantitative RT-PCR (TaqMan) mRNA level, GLUT-2; format: cell-based, rat; settings: 24 h
Procedure: as §1, §2, §3

glucokinase mRNA = test: Quantitative RT-PCR (TaqMan) mRNA level, glucokinase; format: cell-based, rat; settings: 100 μM, 24 h
Procedure: as §1, §2, §3

GLUT-1 mRNA = test: Quantitative RT-PCR (TaqMan) mRNA level, GLUT-1; format: cell-based, rat; settings: for GLUT-1 mRNA levels / GLUT-1 mRNA induction: 24 h
Procedure: as §1, §2, §3

Rat primary hepatocytes [3] = settings: 24 h, 1 mM
plasma insulin = test: In vivo study, plasma insulin in rats fed phytanic acid; design: species or system male Wistar rats; settings: 150 and 750 mg phytanic acid/kg feed, day 7, vs control chow
Procedure: Male Wistar rats were adapted for two days and then fed with the respective substance. The values are means±SD (see Example 4).
To determine the beneficial effect of phytanic acid on plasma insulin levels, a study was performed using male Wistar rats. The animals were adapted for two days and then fed with control chow, 150 mg phytanic acid/kg feed (P-10), and 750 mg phytanic acid/kg feed (P-50), respectively. Blood samples were taken at day 7 and the insulin concentration in the plasma was measured (FIG. 7).

RXR [4] = settings: read-out: RXR receptor binding IC50; cited from earlier work
[5] = system: apolipoprotein A1 (ApoA1) mRNA; test: Quantitative RT-PCR (TaqMan) mRNA level, ApoA1; format: cell-based, rat; settings: 10 μM for 24 h
Procedure: (§4) The mRNA levels were determined with the TaqMan™ methodology after a 24 h stimulation of the rat primary hepatocytes with 10 μM phytanic acid, palmitic acid, and DHA. mRNA levels were normalized to β-actin expression and expressed relative to untreated cells. The data is presented as means of 3 independent experiments. Error bars were calculated as described in Example 3.
(§5) For the quantification of the expression levels the novel Real Time Quantitative TaqMan™ PCR using the multiplex method was employed. Total RNA was isolated using the RNeasy kit from QIAGEN (Valencia, Calif.). The first strand cDNA was synthesized in a 20 μl reaction from 5 μg total RNA by reverse transcription with the. SuperScriptII™ Reverse Transcriptase Kit (Life Technologies Inc., Coralville Iowa) and 100 ng random hexamers, as previously described (Zimmermann, U., Fluehmann, B., Born, W., Fischer, J., A. & Muff, R. (1997) Coexistence of Novel Amylin-Binding Sites With Calcitonin Receptors in Human Breast Carcinoma Mcf-7 Cells, Journal of Endocrinology. 155, 423–431). Subsequently the cDNA was diluted to 500 μl. […]
as §3

[6] = system: low-density lipoprotein receptor (LDLR) mRNA; test: Quantitative RT-PCR (TaqMan) mRNA level, LDLR; format: cell-based, rat; settings: 10 μM for 24 h
Procedure: as §4, §5, §3

[7] = system: liver fatty acid binding protein (LFABP) mRNA; test: Quantitative RT-PCR (TaqMan) mRNA level, LFABP; format: cell-based, rat; settings: 10 μM for 24 h
Procedure: as §4, §5, §3

PPARα = molecular target: T1, PPARα (Homo sapiens, UniProt Q07869); settings: read-out: Kd-value as PPARα ligand; cited from earlier work
T1 sequence (Q07869 1-468): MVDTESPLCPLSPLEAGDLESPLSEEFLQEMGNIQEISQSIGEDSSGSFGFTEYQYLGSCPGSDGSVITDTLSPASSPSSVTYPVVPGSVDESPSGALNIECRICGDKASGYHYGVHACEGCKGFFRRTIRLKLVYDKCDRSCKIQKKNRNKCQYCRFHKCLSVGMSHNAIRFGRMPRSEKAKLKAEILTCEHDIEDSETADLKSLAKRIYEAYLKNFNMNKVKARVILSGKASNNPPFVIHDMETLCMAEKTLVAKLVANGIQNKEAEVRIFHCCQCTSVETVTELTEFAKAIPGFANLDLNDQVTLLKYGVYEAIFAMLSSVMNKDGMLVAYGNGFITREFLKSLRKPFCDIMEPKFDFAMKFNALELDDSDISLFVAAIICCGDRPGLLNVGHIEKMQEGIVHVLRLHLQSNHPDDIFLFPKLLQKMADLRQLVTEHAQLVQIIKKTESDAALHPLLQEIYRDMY

HMG-CoA reductase mRNA = test: Quantitative RT-PCR (TaqMan) mRNA level, HMG-CoA reductase; format: cell-based, rat; settings: 10 μM for 24 h
Procedure: as §4, §5, §3

[8] = system: lipoprotein lipase (LPL) mRNA; test: Quantitative RT-PCR (TaqMan) mRNA level, LPL; format: cell-based, rat; settings: 10 μM for 24 h
Procedure: as §4, §5, §3

[9] = system: apolipoprotein E (ApoE) mRNA; test: Quantitative RT-PCR (TaqMan) mRNA level, ApoE; format: cell-based, rat; settings: 10 μM for 24 h
Procedure: as §4, §5, §3

[10] = system: cytochrome P450/4A1 (Cyp4al) mRNA; test: Quantitative RT-PCR (TaqMan) mRNA level, Cyp4a1; format: cell-based, rat; settings: 10 μM for 24 h
Procedure: as §4, §5, §3

Rat primary hepatocytes [11] = test: [3H]-2-deoxy-D-glucose uptake in hepatocytes; format: cell-based; settings: 24 h treatment
Procedure: Rat primary hepatocytes were cultured for 24 h at 37° C. in media containing phytanic acid 10 μM (□) and 100 μM (▪), palmitic acid 100 μM ( ), DHA 100 μM (∘), and control (▴). Subsequently [3H]-2-deoxy-D-glucose uptake was measured after 15, 30, and 60 min incubation period.
Cells cultured in 24-well plates were treated for 24 h with phytanic acid, palmitic acid, and DHA. Subsequently the medium was removed and cells were washed twice with pre-warmed phosphate buffered saline, pH 7.4 (PBS). 500 μl of pre-warmed glucose reaction mixture (0.01 mM 2-deoxy-D-glucose and 3 μCi/ml [3H]-2-deoxy-D-glucose in PBS) was then added to the cells. The reaction mixture was further incubated at 37° C. for different time intervals. The reaction was terminated by aspirating the reaction mixture and washing the cells twice with ice cold 10 mM 2-deoxy-D-glucose in PBS. Cells were then solubilized with 500 μl of 1% sodium dodecyl sulfate, 400 μl of which was transferred to scintillation vials containing 5 ml Quickszint 1 (Zinsser Analytic, Frankfurt, Germany). Radioactivity was counted in a Tri-Carb 2500 (Packard, Meriden, Conn.) liquid scintillation counter. The remaining lysate was used for protein content determination with the BCA Protein Assay Reagent Kit (Pierce, Rockford, Ill.). Data are expressed as means±SD from 3 independent experiments.

[12] = system: tumor necrosis factor α (TNFα) mRNA; test: Quantitative RT-PCR (TaqMan) mRNA level, TNFα; format: cell-based, rat; settings: 10 μM for 24 h
Procedure: as §4, §5, §3

[13] = cited from earlier work
[14] = adult mice, 0.5% phytol diet for 21 days; cited from earlier work
[15] = concentrations lower than 100 μM

Structure (SMILES): CC1=C(/C=C/C(C)=C\C=C\C(C)=C\C(=O)O)C(C)(C)CCC1 [9-cis-retinoic acid, reference compound]
- EC50 ([2]; read-out: RAR activation EC50): 13 nM

Structure (SMILES): CC/C=C\C/C=C\C/C=C\C/C=C\C/C=C\C/C=C\CCC(=O)O [DHA, docohexaenoic acid, reference compound]
- transcription of PEPCK mRNA (PEPCK mRNA; 100 μM, 24 h): reduced
- GLUT-2 mRNA levels (GLUT-2 mRNA): did not affect
- transcription of glucokinase mRNA (glucokinase mRNA): reduced
- GLUT-1 mRNA levels (GLUT-1 mRNA; concentrations up to 100 μM): did not affect

Structure (SMILES): CCCCCCCCCCCCCCCC(=O)O [palmitic acid, reference compound]
- transcription of PEPCK mRNA (PEPCK mRNA; 100 μM, 24 h): reduced
- GLUT-2 mRNA levels (GLUT-2 mRNA; low concentrations): minor induction
- transcription of glucokinase mRNA (glucokinase mRNA): reduced
- GLUT-1 mRNA induction (GLUT-1 mRNA; 100 μM): 2.4 (1.7–3.3) fold
- GLUT-1 mRNA levels (GLUT-1 mRNA; [15]): did not affect

Structure (SMILES): CC(C)CCCC(C)CCCC(C)CCCC(C)CC(=O)O (stereo not shown) [phytanic acid]
- cells survived compared to untreated (Rat primary hepatocytes [3]): 54±17%
- PEPCK transcript (PEPCK mRNA; 10 μM for 24 h): increase
- PEPCK mRNA induction (PEPCK mRNA; 100 μM, 24 h): 2.5 (1.7–3.6) fold
- PEPCK mRNA maximal induction (PEPCK mRNA; 100 μM, after 6 hours): 4.4 (3.4–5.7) fold
- plasma insulin (plasma insulin): could reduce the plasma insulin
- IC50 (RXR [4]): 2300 nM
- GLUT-2 mRNA maximal induction (GLUT-2 mRNA; 100 μM): 3.2 (2.7–3.8) fold
- GLUT-2 mRNA induction (GLUT-2 mRNA; 0.01–100 μM): at least 2 fold
- EC50 (RXR [1]; read-out: RXR transcriptional effects EC50): 3000 nM
- ApoA1 mRNA [5]: downregulated
- LDLR transcript [6]: increase
- glucokinase mRNA induction (glucokinase mRNA): 3.0 (2.5–3.4) fold
- LFABP mRNA levels [7]: remained unaffected
- Kd (PPARα): 10 nM
- HMG-CoA reductase transcript (HMG-CoA reductase mRNA): increase
- activity on retinoid receptors (RXR vs RAR) [2]: restricted to RXR receptors
- LPL transcript [8]: increase
- ApoE mRNA [9]: downregulated
- Cyp4a1 transcript [10]: increase
- 2-deoxy-D-glucose uptake vs control, palmitic acid or DHA (Rat primary hepatocytes [11]; 100 μM, uptake over 15, 30, 60 min): substantial increase
- 2-deoxy-D-glucose uptake (Rat primary hepatocytes [11]; [15]): no measurable effect
- GLUT-1 mRNA induction (GLUT-1 mRNA; 100 μM): 2.2 (1.6–2.9) fold
- GLUT-1 mRNA maximal induction (GLUT-1 mRNA; 100 μM, after 6 hours, normalized to β-actin, relative to untreated): 5.6 (5.1–6.2) fold
- GLUT-1 mRNA levels (GLUT-1 mRNA; [15]): did not affect
- TNFα transcript [12]: increase

Structure (SMILES): C/C(=C\CO)CCC[C@H](C)CCC[C@H](C)CCCC(C)C [phytol]
- intestinal absorption from dietary chlorophyll ([13]; rat and man): minimal
- absorption compared with phytanic acid ([13]; rats): much less well adsorbed than phytanic acid
- cholesterol serum levels [14]: remained unaffected
- decrease in triglyceride serum levels [14]: 40%
